Source: US11597708B2, “Inhibitors of heat shock factors and uses thereof” (HSF Pharmaceuticals SA, priority 2016, dated 2023)

Tests used:
HeLa cells [1] = assay: Trypan Blue staining, live and necrotic cells; type: cell-based, human
Protocol: (§1) FIG. 6. (A) HeLa cell cultures were mock-exposed (−) or exposed to the indicated concentrations of compound 115 for 24 (left panel) or 96 (right panel) hours. Cell viability of total cultures, floating cells and attached cells was assayed using an Alamar Blue assay. (B) HeLa cell cultures were mock-exposed (−) or exposed to the indicated concentrations of compound 115 for 15-96 hours. Trypan Blue dye exclusion was employed to determine numbers of live cells (left panel) and relative levels of necrotic cells (right panel). (C) HeLa cell cultures were mock-exposed (−) or exposed to the indicated concentrations of compound 115 for 6 and 24 h. Shown are relative levels of early apoptotic cells (annexin-positive, 7 aminoactinomycin D-negative). (D) Flow cytometric analysis of DNA of HeLa cell cultures mock-exposed (−) or exposed to the indicated concentrations of compound 115 for 6, 15 and 24 hours. Relative levels of apoptotic cells are indicated.
(§2) Further studies were aimed at finding out whether IHSF-exposed cancer cells were only growth-arrested or were actually killed and, if they were killed, by what mechanism. […] The viability signal (in whole cultures and, more dramatically, when only attached cells were analyzed) decreased as a function of IHSF concentration. […] Stained (necrotic) and unstained (live) cells were counted (FIG. 6B). […]

HeLa cells [2] = assay: Flow cytometric analysis of DNA (sub-G0/G1 fraction); type: cell-based, human; settings: 12.5 or 25 μM for up to 24 h
Protocol: as §1, §2

HeLa cells [3] = assay: Annexin V/7 aminoactinomycin D double staining assay; type: cell-based, human; settings: 25 μM for up to 24 hours
Protocol: as §1, §2

[4] = system: multiple myeloma MM.1S cells; assay: Analysis of mechanism of cell death in MM.1S cells; type: cell-based, human; settings: in contrast to HeLa cells (non-apoptotic mechanism)
[5] = system: KD 13 (HeLa-derived, HSF1 siRNA); assay: Alamar Blue assay of HSF1-deficient KD 13 line versus KD control cells; type: cell-based, human; settings: 96 hours exposure, different concentrations
Protocol: FIG. 7. (A) Upper panel: HSF1 levels in cultures of KD control and KD13 cells as assayed by WB. Lower panel: number of alive KD control and KD13 cells after 1-4 days of culture as determined by Trypan Blue dye exclusion. […] Cell viability was assayed by Alamar Blue assay.
The most severely HSF1-deficient lines grew slowly. FIG. 7 reports on the properties of one such line, KD 13, which was compared to control lentivirus-transduced cells (KD control). The WB in FIG. 7A (upper panel) confirms that the KD 13 line is essentially devoid of HSF1. The lower panel compares growth of the cell line with that of the control cells (the graph showing numbers of Trypan Blue-excluding (live) cells after 1-4 days of culture). We conclude that the KD 13 line has partially overcome its HSF1 dependency.

PC-3 tumor xenograft = assay: Human prostate cancer PC-3 xenograft model in athymic mice; type: in vivo; settings: for tumor growth: period of daily administration (7 days)
Protocol: Prostate cancer cell line PC-3 was obtained from ATTC and grown in tissue culture under standard conditions. Groups (8 animals) of athymic mice (6-7 weeks old, male, obtained from Harlan) were inoculated subcutaneously on the right flank with 5×10^6 PC-3 cells. Cells were administered as a 1:1 mixture of cells in medium and Matrigel. Treatment was initiated when tumor size reached about 200 mg, at which time the mice were randomized. Of the various groups in the experiment, one group received a daily intravenous dose (via the tail vein) of 2 mg IHSF 115 in an aqueous solution of Kleptose HPB (see Example 2.1) for 7 days, followed by additional dosing with 2 mg IHSF 115 every other day. Another group received a daily dose of 0.8 mg IHSF 115 in an aqueous solution of Kleptose HPB (see Example 2.1) for 7 days, followed by additional dosing with 0.8 mg IHSF 115 every other day. A control group was subjected to same regimen, administering vehicle (Kleptose HPB solution) only. Tumor size and weight were assessed periodically and recorded. Tumor size was estimated using calipers. Calculation: tumor weight (mg)=(a×b^2/2) where ‘b’ is the smallest diameter and ‘a’ is the largest diameter. […] Loss of weight for the period was less than 4%.

[6] = Dissolution in aqueous Kleptose HPB stock solution; type: physicochemical; settings: 85 mg in 8.5 ml of 357 mg/ml Kleptose HPB stock solution, overnight, slow agitation, room temperature
Protocol: 1. Prepare 15 ml of a 357 mg/ml stock solution of Kleptose HPB (Roquette Pharma) in water (of which the amount not used under 2 is reserved for vehicle controls).
2. Dissolve 85 mg of compound 0115 in 8.5 ml of Kleptose stock solution by incubating the solution overnight with slow agitation (at room temperature). Over 90% of the drug substance will be dissolved after this incubation.

Structure (SMILES): CN(C(=O)/C=C/C1=NCCCO1)c1ncc(-c2cccnc2)s1 [IHSF 115, (E)-3-(5,6-Dihydro-4H-[1,3]oxazin-2-yl)-N-methyl-N-(5-pyridin-3-yl-thiazol-2-yl)-acrylamide]
- necrotic HeLa cells (Trypan Blue) (HeLa cells [1]; 15-hour exposure to 3.125 μM): increase in necrotic cells was already apparent
- numbers of live and necrotic HeLa cells (Trypan Blue) (HeLa cells [1]; exposure for 15, 24 and 96 hours): caused numbers of live cells to decrease and numbers of necrotic cells to increase in a concentration- and time-dependent fashion
- sub-G0/G1 fractions (% of cells included) (HeLa cells [2]): ≤ 6%
- live cells annexin V-stained (HeLa cells [3]): no more than 15%
- mechanism of cell death of MM.1S cells [4]: prominent apoptotic component
- resistance of KD 13 line versus control lentivirus-transduced cells to killing [5]: more resistant to killing
- tumor growth (PC-3 tumor xenograft; 0.8 mg daily dose in aqueous Kleptose HPB): smaller effect
- tumor growth (PC-3 tumor xenograft; 2 mg daily intravenous in aqueous Kleptose HPB): substantial (and statistically significant) reduction in tumor growth
- toxicity (PC-3 tumor xenograft; athymic mice, intravenous via the tail vein): No toxicity was observed, except for some local swelling in the inoculation region
- Loss of weight for the period (PC-3 tumor xenograft; period of daily administration): less than 4%
- drug substance dissolved [6]: Over 90%
